The record followed here is PubChem BioAssay (NCI).

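Protocol summary: plate cells (96-well), add compound at 5 concentrations, incubate 48 h, interpolate endpoints linearly. At the GI50, growth is halved. TGI denotes the concentration required for complete inhibition of growth.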 A value given as a limit tells only on which side of the number the result lay.

Test systems include HCT-116 colon; SN12C renal; HCT-15 colon; SR leukemia; HT29 colon; SK-MEL-28 melanoma; CCRF-CEM leukemia; NCI-H226 lung; SF-539 CNS; TK-10 renal.
Common to all, as to test: growth of human tumour cells (NCI), 48 h

For the compound `O=C1NC(=N[C@@H]2C[C@H]2c2ccccc2)S/C1=C\c1ccc2ncccc2c1`, the GI50 in the test on HCT-116 colon is 0.839 µM; in the test with SN12C renal, 1.68 µM; in the test with HCT-15 colon, 0.74 µM; in the test on SR leukemia, 0.646 µM; with HT29 colon, 1.12 µM; in the test on SK-MEL-28 melanoma, 4.46 µM. The GI50 in the test on CCRF-CEM leukemia is 1.31 µM; in the test on NCI-H226 lung, 3.18 µM; with SF-539 CNS, 1.04 µM; in the test with TK-10 renal it was 0.899 µM. In addition, the TGI in the test on HCT-116 colon is 5.72 µM; in the test on SN12C renal, greater than 25 µM; with HCT-15 colon, greater than 25 µM; with SR leukemia, 3.27 µM; in the test on HT29 colon it was 9.04 µM; in the test with SK-MEL-28 melanoma, greater than 18 µM. The TGI is greater than 25 µM in the test on CCRF-CEM leukemia, 10.2 µM in the test on NCI-H226 lung, 5.07 µM in the test with SF-539 CNS and 5.58 µM in the test with TK-10 renal.

In the case of `CCOC(=O)c1cc2c(OC)cc(OC)cc2oc1=O`, the TGI in the test on HCT-116 colon, in the test with SN12C renal, with HCT-15 colon, in the test on SR leukemia, with HT29 colon and in the test on SK-MEL-28 melanoma was greater than 100 µM throughout. Further, the TGI with CCRF-CEM leukemia, in the test with NCI-H226 lung, in the test on SF-539 CNS and in the test on TK-10 renal was greater than 100 µM each time.

Regarding `Cc1cccc2c1NC(=O)[C@@H](NC(=O)[C@H](CCC(F)(F)F)[C@H](CCC(F)(F)F)C(N)=O)N=C2c1cccc(F)c1`, the GI50 is 51.2 µM in the test on HCT-116 colon; 28.4 µM in the test on SN12C renal; greater than 100 µM in the test with HCT-15 colon; 49.4 µM in the test with SR leukemia; greater than 100 µM with HT29 colon; greater than 100 µM in the test with SK-MEL-28 melanoma. Moreover, the GI50 in the test on CCRF-CEM leukemia is greater than 100 µM; in the test on NCI-H226 lung it was 17 µM; in the test on SF-539 CNS, 18.4 µM; with TK-10 renal, 34.7 µM. The TGI with HCT-116 colon, in the test with SN12C renal, with HCT-15 colon, with SR leukemia, with HT29 colon and in the test on SK-MEL-28 melanoma was greater than 100 µM throughout. In addition, the TGI in the test on CCRF-CEM leukemia is greater than 100 µM; in the test with NCI-H226 lung it was 73.4 µM; in the test with SF-539 CNS, 41.8 µM; in the test with TK-10 renal it was greater than 100 µM.

In the case of `CC1OC(n2ccc3ccc([N+](=O)[O-])cc32)C(O)C(O)C1O` (stereo not given), the TGI with HCT-116 colon, in the test with SN12C renal, in the test on HCT-15 colon, with SR leukemia, in the test on HT29 colon and with SK-MEL-28 melanoma was greater than 100 µM throughout. Also, the TGI with CCRF-CEM leukemia, in the test on NCI-H226 lung, with SF-539 CNS and in the test on TK-10 renal was greater than 100 µM throughout.

As to `C#CCOCCCC(=O)O`, the TGI in the test with HCT-116 colon, with SN12C renal, in the test with HCT-15 colon, in the test with SR leukemia, with HT29 colon and in the test with SK-MEL-28 melanoma was greater than 100 µM throughout. The TGI in the test on CCRF-CEM leukemia, in the test on NCI-H226 lung, in the test with SF-539 CNS and in the test on TK-10 renal was greater than 100 µM each time.

As for `COc1cc(C)cc(C(=O)OCc2ccccc2)c1C1=C(Cl)C(=O)C(Cl)=CC1=O`, the TGI in the test with HCT-116 colon was greater than 10 µM; with SN12C renal, greater than 10 µM; in the test on HCT-15 colon it was greater than 10 µM; in the test with SR leukemia, greater than 7.85 µM; with HT29 colon, greater than 10 µM; in the test with SK-MEL-28 melanoma, greater than 10 µM. Besides, the TGI in the test on CCRF-CEM leukemia is 4.76 µM; with NCI-H226 lung, greater than 10 µM; in the test on SF-539 CNS, greater than 10 µM; in the test with TK-10 renal, greater than 10 µM.

Take `OCC(O)COc1ccc(F)cc1` (stereo not given): the TGI with HCT-116 colon, in the test on SN12C renal, with HCT-15 colon, in the test with SR leukemia, in the test with HT29 colon and in the test on SK-MEL-28 melanoma was greater than 100 µM each time. Besides, the TGI in the test with CCRF-CEM leukemia, in the test with NCI-H226 lung, in the test on SF-539 CNS and in the test with TK-10 renal was greater than 100 µM throughout.

With `CC(=O)N[C@@H](Cc1ccc(OP(=O)(O)O)cc1)C(=O)N[C@H]1CCC(=O)N2CCC[C@@H](C(=O)NCc3cccc4ccccc34)N2C1=O`, the GI50 in the test on HCT-116 colon, with SN12C renal, with HCT-15 colon, in the test with SR leukemia, in the test on HT29 colon and in the test with SK-MEL-28 melanoma was greater than 25 µM in each case. In addition, the GI50 in the test with CCRF-CEM leukemia, with NCI-H226 lung, in the test on SF-539 CNS and in the test with TK-10 renal was greater than 25 µM each time. Further, the TGI with HCT-116 colon, with SN12C renal, in the test on HCT-15 colon, in the test with SR leukemia, with HT29 colon and with SK-MEL-28 melanoma was greater than 25 µM each time. In addition, the TGI in the test with CCRF-CEM leukemia, in the test with NCI-H226 lung, with SF-539 CNS and in the test on TK-10 renal was greater than 25 µM in each case.

`CSc1nc(SC)c2c(C)cn(Cc3ccccc3)c2n1`: the TGI in the test with HCT-116 colon, in the test on SN12C renal, in the test with HCT-15 colon, with SR leukemia, in the test with HT29 colon and with SK-MEL-28 melanoma was greater than 100 µM throughout. Moreover, the TGI with CCRF-CEM leukemia, in the test with NCI-H226 lung, with SF-539 CNS and with TK-10 renal was greater than 100 µM throughout.

Regarding `O=P1(O)c2ccccc2CSCc2ccccc21`, the TGI in the test on HCT-116 colon, in the test on SN12C renal, in the test with HCT-15 colon, with SR leukemia, in the test on HT29 colon and in the test with SK-MEL-28 melanoma was greater than 100 µM throughout. Also, the TGI with CCRF-CEM leukemia, in the test on NCI-H226 lung, in the test on SF-539 CNS and in the test with TK-10 renal was greater than 100 µM each time.

For the compound `CCOC(=O)Nc1ccc2c3c(cccc13)-c1ccccc1-2`, the GI50 in the test with HCT-116 colon is 4.22 µM; with SN12C renal, 5.98 µM; in the test on HCT-15 colon, 4.32 µM; in the test with SR leukemia, 4.36 µM; in the test with HT29 colon, 3.67 µM; in the test with SK-MEL-28 melanoma it was 10.7 µM. Moreover, the GI50 was 7.85 µM in the test with CCRF-CEM leukemia, greater than 100 µM in the test with NCI-H226 lung, 5.65 µM in the test with SF-539 CNS and greater than 100 µM in the test on TK-10 renal. Besides, the TGI in the test on HCT-116 colon, in the test on SN12C renal, in the test with HCT-15 colon, with SR leukemia, in the test with HT29 colon and with SK-MEL-28 melanoma was greater than 100 µM each time. Also, the TGI in the test with CCRF-CEM leukemia, in the test on NCI-H226 lung, with SF-539 CNS and in the test on TK-10 renal was greater than 100 µM in each case.
